Experimental data reported in US20240009191A1, “METHOD AND COMPOSITION FOR THE TREATMENT OF DISEASE” (DIMERIX BIOSCIENCE PTY LTD, priority 2019, published 2024).

Biological target: T1, AT1R-CXCR2 heteromer (Homo sapiens, UniProt P25025+P30556)
T1 sequence (P25025 1-360): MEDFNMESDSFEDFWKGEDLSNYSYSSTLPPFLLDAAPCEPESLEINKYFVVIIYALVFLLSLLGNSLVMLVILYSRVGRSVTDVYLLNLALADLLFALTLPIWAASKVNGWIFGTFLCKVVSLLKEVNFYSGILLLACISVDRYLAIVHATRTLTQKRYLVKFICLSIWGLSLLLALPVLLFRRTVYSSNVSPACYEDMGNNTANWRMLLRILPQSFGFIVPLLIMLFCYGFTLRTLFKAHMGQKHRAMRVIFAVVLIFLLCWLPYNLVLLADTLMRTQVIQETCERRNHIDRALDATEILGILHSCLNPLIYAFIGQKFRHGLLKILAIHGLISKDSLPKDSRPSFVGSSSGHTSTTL
T1 sequence (P30556 1-359): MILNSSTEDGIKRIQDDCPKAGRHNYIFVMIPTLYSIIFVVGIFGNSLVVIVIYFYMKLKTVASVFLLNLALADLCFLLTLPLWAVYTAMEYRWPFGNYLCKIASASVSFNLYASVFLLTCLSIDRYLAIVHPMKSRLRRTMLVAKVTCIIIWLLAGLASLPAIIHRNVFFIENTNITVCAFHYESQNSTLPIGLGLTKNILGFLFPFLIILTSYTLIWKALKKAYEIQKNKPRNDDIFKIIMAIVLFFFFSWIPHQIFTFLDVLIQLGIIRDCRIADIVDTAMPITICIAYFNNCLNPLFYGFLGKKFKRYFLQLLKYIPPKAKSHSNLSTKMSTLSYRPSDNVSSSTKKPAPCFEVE
Test: BRET trafficking of CXCR2/Rluc8 to Venus/Kras or Venus/Rab markers, presence of HA-AT1R
Format: cell-based
Protocol: HEK293FT cells were seeded in 6-well plates at a density of approximately 700,000 cells/well and maintained at 37° C., 5% CO2 in Complete Media (DMEM containing 0.3 mg/ml glutamine, 100 IU/ml penicillin and 100 μg/ml streptomycin (Gibco/Thermo Fisher)) supplemented with 10% fetal calf serum (FCS; Bovogen). Transient transfections were carried out 24 h after seeding using FuGene6™ (Promega) according to manufacturer instructions. 24 h post-transfection, cells were washed with PBS, detached using 0.05% trypsin/0.53 mM EDTA, resuspended in HEPES-buffered phenol red free Complete Media containing 5% FCS and added to a poly-L-lysine-coated white 96-well microplate (Greiner Bio-One). 48 h post-transfection, bioluminescence resonance energy transfer (BRET) assays were carried out following pre-incubation of cells with EnduRen™ (Promega) at a final concentration of 30 μM, at 37° C., 5% CO2 for 2 h. BRET measurements were taken at 37° C. using the LUMlstar™ or CLARIOstar™ (BMG Labtech). Filtered light emissions were measured for 1 s in each of the ‘donor wavelength window’ (460-490 nm for LUMlstar™ or 410-490 nm for CLARIOstar™) and ‘acceptor wavelength window’ (520-550 nm for LUMlstar™ or 520-620 nm for CLARIOstar™).
The BRET signal observed between interacting proteins is normalized by subtracting the background BRET ratio. This can be done in one of two ways (see Pfleger et al. (2006) Cell Signal 18:1664-1670; Pfleger et al. (2006) Nat Protoc 1:336-344): 1) the ratio of the 520-550 nm or 520-620 nm emission over the 460-490 nm or 410-490 nm emission for a cell sample containing only the donor construct is subtracted from the same ratio for a sample containing the interacting acceptor and donor fusion proteins; 2) the ratio of the 520-550 nm or 520-620 nm emission over the 460-490 nm or 410-490 nm emission for a cell sample treated with vehicle is subtracted from the same ratio for a second aliquot of the same cell sample treated with ligand. In the following examples, the second calculation will be used and the signal is described as ligand-induced BRET′. Furthermore, for data shown in FIGS. 4 to 20, all data points in a given set are corrected relative to the final data point prior to agonist treatment, which is fixed to zero. In keys on FIGS. 7 to 20, “>” means “followed by after 50 minutes”, with agonists added at time zero on the x-axes.
The Receptor-Heteromer Investigation Technology (Receptor-HIT) is an assay configuration that provides insights into receptor complexes (Ayoub et al. (2015) PLoS One 10(3):e0119803). It is also known as GPCR-HIT when assessing GPCRs. It is an assay configuration whereby one receptor (eg. CXCR2) is labelled with one component (eg. Renilla luciferase variant Rluc8) of a proximity-based reporter system (eg. BRET), the complementary component of which (eg. Venus yellow fluorescent protein) is fused to a receptor interacting partner (eg. mGsi).
Referring now to FIG. 3 (published in Tiulpakov et al (2016) Mol. Endocrinol. 30, 889-904), the proximity of Rluc8-tagged receptors to Venus-tagged Kras plasma membrane marker, or Venus-tagged Rabs specific for distinct subcellular locations, is monitored in live cells and in real-time using BRET. The Rab markers are: Venus/Rab5 (5) for early endosomes; Venus/Rab4 (4) for early endosome recycling; Venus/Rab11a (11) for recycling endosomes; Venus/Rab7 (7) for late endosomes/lysosomes; Venus/Rab9 (9) for late endosome trafficking to the trans-Golgi network; Venus/Rab1 (1) for endoplasmic reticulum trafficking to the cis-Golgi; Venus/Rab6 (6) for Golgi apparatus and trans-Golgi network; or Venus/Rab8 (8) for trans-Golgi network to plasma membrane.

Substance: Angiotensin II [AngII]
- proximity of CXCR2/Rluc8 to Venus/Kras (BRET): increased proximity
- proximity of CXCR2/Rluc8 to Venus/Rab1 (BRET): barely any effect
- proximity of CXCR2/Rluc8 to Venus/Rab4 (BRET): very small increase
- proximity of CXCR2/Rluc8 to Venus/Rab5 (BRET): very small increase
- proximity of CXCR2/Rluc8 to Venus/Rab6 (BRET): small increase
- proximity of CXCR2/Rluc8 to Venus/Rab7 (BRET): barely any effect
- proximity of CXCR2/Rluc8 to Venus/Rab8 (BRET): clear increase
- proximity of CXCR2/Rluc8 to Venus/Rab9 (BRET): small increase
- proximity of CXCR2/Rluc8 to Venus/Rab11a (BRET): barely any effect
